Laboratory results taken from patent publication US20140010939A1, “Sweetness Enhancers, Sweetener Compositions, Methods of Making the Same and Consumables Containing the Same” (Nutrinova Nutrition Specialties & Food Ingredients GmbH, priority 2011, published 2014).
“Also recorded” adds a separate entry of the source.

Biological target: T1, heterodimeric hT1R2/hT1R3 sweet taste receptor (Homo sapiens, UniProt Q7RTX0+Q8TE23)
T1 construct: expressed in transfected cells
T1 sequence (Q8TE23 20-839): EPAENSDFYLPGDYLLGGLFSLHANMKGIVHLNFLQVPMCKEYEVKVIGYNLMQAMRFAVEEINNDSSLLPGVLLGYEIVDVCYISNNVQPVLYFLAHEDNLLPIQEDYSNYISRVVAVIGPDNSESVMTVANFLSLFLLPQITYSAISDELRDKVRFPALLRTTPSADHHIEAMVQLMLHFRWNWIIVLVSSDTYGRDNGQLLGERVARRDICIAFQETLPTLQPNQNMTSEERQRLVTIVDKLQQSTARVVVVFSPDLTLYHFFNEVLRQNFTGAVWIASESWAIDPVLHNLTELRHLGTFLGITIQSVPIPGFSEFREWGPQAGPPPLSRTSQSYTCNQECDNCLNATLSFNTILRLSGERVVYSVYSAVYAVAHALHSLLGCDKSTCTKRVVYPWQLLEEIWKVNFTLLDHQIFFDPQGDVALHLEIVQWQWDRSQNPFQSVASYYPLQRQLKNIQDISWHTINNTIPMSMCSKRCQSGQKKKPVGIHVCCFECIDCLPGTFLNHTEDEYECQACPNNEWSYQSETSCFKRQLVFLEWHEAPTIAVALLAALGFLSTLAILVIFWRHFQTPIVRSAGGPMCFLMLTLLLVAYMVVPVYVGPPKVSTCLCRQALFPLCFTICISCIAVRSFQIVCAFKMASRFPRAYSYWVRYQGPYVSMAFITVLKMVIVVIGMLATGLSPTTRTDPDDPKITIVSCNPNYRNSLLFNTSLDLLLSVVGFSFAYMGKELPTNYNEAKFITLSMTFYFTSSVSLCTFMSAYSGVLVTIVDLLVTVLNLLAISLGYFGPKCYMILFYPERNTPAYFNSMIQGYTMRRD
T1 sequence (Q7RTX0 21-852): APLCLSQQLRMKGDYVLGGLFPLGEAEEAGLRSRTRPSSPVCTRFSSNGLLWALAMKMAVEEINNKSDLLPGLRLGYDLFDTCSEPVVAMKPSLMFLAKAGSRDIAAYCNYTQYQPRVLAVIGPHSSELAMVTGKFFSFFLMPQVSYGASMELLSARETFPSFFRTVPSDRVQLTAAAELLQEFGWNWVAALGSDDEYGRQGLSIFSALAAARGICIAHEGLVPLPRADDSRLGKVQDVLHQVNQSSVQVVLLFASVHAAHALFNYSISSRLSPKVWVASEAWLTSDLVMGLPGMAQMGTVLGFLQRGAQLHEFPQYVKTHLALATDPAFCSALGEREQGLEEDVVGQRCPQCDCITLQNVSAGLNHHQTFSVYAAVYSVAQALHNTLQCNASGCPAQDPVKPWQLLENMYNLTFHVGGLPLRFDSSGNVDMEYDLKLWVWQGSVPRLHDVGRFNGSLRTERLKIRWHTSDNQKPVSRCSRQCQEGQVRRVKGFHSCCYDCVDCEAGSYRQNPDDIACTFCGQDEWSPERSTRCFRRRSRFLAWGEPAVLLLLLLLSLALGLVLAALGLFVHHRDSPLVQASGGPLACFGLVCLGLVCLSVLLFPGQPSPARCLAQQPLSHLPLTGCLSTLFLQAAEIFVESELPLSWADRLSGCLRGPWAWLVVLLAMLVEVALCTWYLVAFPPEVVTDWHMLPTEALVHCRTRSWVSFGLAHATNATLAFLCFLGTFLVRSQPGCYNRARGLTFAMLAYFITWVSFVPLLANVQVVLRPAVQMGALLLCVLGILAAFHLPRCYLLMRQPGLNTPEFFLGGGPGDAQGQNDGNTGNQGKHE
Assay: Recombinant human taste receptor T1R2/T1R3 dependent cell based assay (calcium, Fluo4-AM fluorescence)
Description: For measurement of human T1R2/T1R3 taste receptor dependent activity a control cell line without sweet receptor based on HEK 293 and a cell line expressing the sweet receptor hT1R2/hT1R3 based on HEK 293, respectively, are seeded into assay plates and labelled with the calcium sensitive fluorescence dye Fluo4-AM in a culture medium. The potential modulators, e.g. the test compound, are added to the control cell line and to the cell line expressing the sweet receptor hT1R2/hT1R3, respectively.
A stable cell line based on HEK293 was termed HEKα15#17 served as control for functional Ga-protein and a stable cell line HEKGα15#17R2R3b#8 C6 served as cell line expressing the sweet receptor hT1R2/hT1R3 based on HEKGα15#17.
The cells were cultured in DMEM/HG and 10% FCS Gold, 4 mM L-Glutamin, 1,3 mg/ml Geneticin (HEKGα15#17) or the same medium additionally containing 6 μg/ml Blasticidin (HEKGα15#17R2R3b#8 C6). The medium for the assay was DMEM/HG (high glucose, 4.5 g/l glucose, Life Technologies) and 10% FCS Gold, 4 mM L-Glutamin (HEKGα15#17) or DMEM/LG (low glucose, 1 g/l glucose; Life Technologies) and 10% FCS Gold (HEKGα15#17R2R3b#8C6), respectively.
In order to evaluate the sweet receptor modulating activity of the compound of formula (Ia), compound of formula (Ia) was added to the cultures in a concentration of 25 μM in a volume of 50 μl. Controls were KH-buffer (Krebs HEPES-buffer: 118 mM NaCl, 4.7 mM KCl, 1.2 mM MgSO4, 1.2 mM KH2PO4, 4.2 mM NaHCO3, 1.3 mM CaCl2, 10 mM Hepes, pH 7.4) either without or with sweetness enhancer.
Further controls for function of G-protein and receptor were isoproterenol (1 μM, Sigma Aldrich), ionomycin (1 μM, Calbiochem) and ATP (1 μM, Applichem). […]
On day 2 the cells were seeded into assay plates at a density of 25,000 cells/well. Assay plates for fluorescence measurement (black clear bottom 96-cavity plates, Greiner Bio-One) were coated with poly-D-lysine. […]

SMILES: CC(=O)N(O)CCCCCNC(=O)C(O)(CC(=O)O)CC(=O)NCCCN(O)C(C)=O (stereo not drawn) [compound of formula (Ia)]
- Enhancement of the activity of fructose (sweetness enhancer activity in vitro) (25 μM with fructose (20 mM) versus KH buffer/fructose): fructose enhancer; also recorded: enhances the activity of fructose
- Time response in the cell assay (measured over a period of 78 seconds, FIG. 2 / inserted graph): selective stimulation of receptor carrying cells
- Fluo4-AM fluorescence increase (cellular activation) (primary screening, receptor carrying cells only, FIG. 1 sixth bar): strong cellular activation
